How the values were obtained:
Test in all cases: relative viability (nuclei count vs DMSO), 5 days (fraction); higher = more cells survive
Mirin + Trametinib = compound: N=C1NC(=O)/C(=C/c2ccc(O)cc2)S1 [Mirin] + CC(=O)Nc1cccc(-n2c(=O)n(C3CC3)c(=O)c3c(Nc4ccc(I)cc4F)n(C)c(=O)c(C)c32)c1 [Trametinib] (partner 0.02 µM)
Procedure, shortened: (§1)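 One day after seeding in 1536-well plates, lung cancer cell lines were dosed by pin tool. Dosing was either single-drug or a fixed anchor-drug dose plus five library-drug doses (not always all listed) in √10 steps. After 5 days, nuclei were stained in one fix-and-stain step and counted on 4× images, and relative viability is the nuclei count of treated wells over that of vehicle wells, given as the median of duplicate plates.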

Mirin + Palbociclib = compound: N=C1NC(=O)/C(=C/c2ccc(O)cc2)S1 [Mirin] + CC(=O)c1c(C)c2cnc(Nc3ccc(N4CCNCC4)cn3)nc2n(C2CCCC2)c1=O [Palbociclib] (partner 0.5 µM)
Procedure, shortened: as §1

Mirin + Crizotinib = compound: N=C1NC(=O)/C(=C/c2ccc(O)cc2)S1 [Mirin] + C[C@@H](Oc1cc(-c2cnn(C3CCNCC3)c2)cnc1N)c1c(Cl)ccc(F)c1Cl [Crizotinib] (partner 1 µM)
Procedure, shortened: as §1

[1] = compound: CCC1=CN=CN=C1N2CCN(CC2)CC3=NC4=C(N3)C=C(C=C4)C(F)(F)F + CS(=O)(=O)CCNCc1ccc(-c2ccc3ncnc(Nc4ccc(OCc5cccc(F)c5)c(Cl)c4)c3c2)o1 [Lapatinib] (partner 2 µM)
Procedure, shortened: as §1

Cell Line	relative viability (Mirin + Trametinib; first compound 0.25 µM)	relative viability (Mirin + Trametinib; first compound 0.7906 µM)	relative viability (Mirin + Trametinib; first compound 2.5 µM)	relative viability (Mirin + Trametinib; first compound 7.906 µM)	relative viability (Mirin + Trametinib; first compound 25 µM)	relative viability (Mirin + Palbociclib; first compound 0.25 µM)	relative viability (Mirin + Palbociclib; first compound 0.7906 µM)	relative viability (Mirin + Palbociclib; first compound 2.5 µM)	relative viability (Mirin + Palbociclib; first compound 7.906 µM)	relative viability (Mirin + Palbociclib; first compound 25 µM)	relative viability (Mirin + Crizotinib; first compound 0.25 µM)	relative viability (Mirin + Crizotinib; first compound 0.7906 µM)	relative viability (Mirin + Crizotinib; first compound 2.5 µM)	relative viability (Mirin + Crizotinib; first compound 7.906 µM)	relative viability (Mirin + Crizotinib; first compound 25 µM)	relative viability ([1]; first compound 0.04 µM)	relative viability ([1]; first compound 0.1265 µM)	relative viability ([1]; first compound 0.4 µM)	relative viability ([1]; first compound 1.265 µM)	relative viability ([1]; first compound 4 µM)
HCC-15	0.341	0.368	0.363	0.368	0.365	0.739	0.712	0.677	0.674	0.737	0.841	0.866	0.888	0.803	0.802	0.847	0.814	0.839	0.828	0.865
NCI-H838	0.548	0.577	0.52	0.528	0.513	0.25	0.232	0.232	0.234	0.236	0.895	0.918	0.834	0.906	0.681	1.09	0.876	0.92	0.692	1.03
HOP-62	0.369	0.447	0.355	0.491	0.398	0.465	0.536	0.46	0.381	0.458	1.05	0.815	0.828		0.937	1.14	1.06	0.979	0.971	1.07
NCI-H322M	0.497	0.506	0.555	0.564	0.571	0.466	0.497	0.521	0.553	0.522	0.797	1.04	0.874	0.905	0.756	0.631	0.571	0.575	0.499	0.682
